According to paper PMC7611678 (ACS catalysis, 2021):
Where two headings read alike, the source gives them in different places.

Experiments:
[1] = tested on: HspUPO; settings: 2 mM H2O2, McIlvaine buffer pH 7, 25 °C; glycosylated enzyme
[2] = tested on: HspUPO; settings: 2 mM H2O2, McIlvaine buffer pH 7, 25 °C; glycosylated enzyme; remark: listed apart in the source
[3] = tested on: HspUPO; settings: 2 mM H2O2, McIlvaine buffer pH 4, 25 °C; glycosylated enzyme
[4] = tested on: HspUPO; settings: 2 mM H2O2, McIlvaine buffer pH 5, 25 °C; glycosylated enzyme
[5] = tested on: HspUPO; settings: 2 mM H2O2, McIlvaine buffer pH 7, 25 °C; glycosylated enzyme; remark: listed apart in the source

## c1ccc2[nH]ccc2c1 [6a, Indole]
[1]
  Km: 54 ± 8.16 µM

## OCc1ccccc1 [Benzyl alcohol]
[2]
  Km: 680 ± 0.14 µM

## COc1ccc(CO)cc1OC [2a, 3,4-Dimethoxybenzyl alcohol]
[3]
  Km: 758 ± 100 µM

## COc1cccc(OC)c1O [2,6-Dimethoxyphenol]
[4]
  Km: 57.5 ± 5 µM

## O=[N+]([O-])c1ccc2c(c1)OCO2 [5-Nitro-1,3-benzodioxole]
[5]
  Km: 18 ± 3.42 µM
